Patent publication US12612409B2, “Pyrrolopyrimidines as CFTR potentiators” (Cystic Fibrosis Foundation, priority 2016, dated 2026)

Target: T1, recombinant F508del V470 CFTR in Fischer rat thyroid (FRT) cells (Homo sapiens, UniProt P13569, DEL508-508)
T1 construct: expressed in transfected cells
Experiment: FRT ion flux assay of F508del CFTR potentiation
Format: cell-based
Conditions: FRT cells expressing F508del V470 CFTR, forskolin 20 uM, 27° C. pre-incubation
Method: FRT Ion Flux Assay of F508del CFTR Potentiation
Fischer rat thyroid (FRT) cell lines stably expressing recombinant F508del V470 CFTR and halide-sensitive yellow fluorescent protein (Pedemonte et al., J. Clin. Invest. 115(9) 2564-71 (2005)) were seeded at 25,000 cells/well in 50 uL/well of culture medium into black-walled, clear bottom tissue-culture-treated 384-well plates (Corning, cat. no. 3712). After one day, the cells were pre-incubated at 27° C./5% CO2 for 16-24 hours. The cells were then washed with dPBS and treated with forskolin (20 uM) and test compound for 30 mi by addition of 20 uL of compound dilution buffer (dPBS containing forskolin and test compound). Plates were loaded into FLIPR384 fluorescence imaging plate reader (Molecular Devices). After an initial fluorescence reading, iodide buffer (25 uL) (composition (in mM): 137 NaI, 1.5 K2PO4, 8.1 NaH2PO4, 2.7 KCl, 0.5 MgCl2, 1 CaCl2) was added and a second fluorescence reading was made after approximately 21 seconds. Data treatment involved division of the second fluorescence reading by the initial fluorescence reading, then scaling of the resulting normalized endpoint fluorescence with respect to the responses for DMSO (0%) and a positive control potentiator (100%).

T1 sequence (P13569 with tags, fused parts or gaps DEL508-508): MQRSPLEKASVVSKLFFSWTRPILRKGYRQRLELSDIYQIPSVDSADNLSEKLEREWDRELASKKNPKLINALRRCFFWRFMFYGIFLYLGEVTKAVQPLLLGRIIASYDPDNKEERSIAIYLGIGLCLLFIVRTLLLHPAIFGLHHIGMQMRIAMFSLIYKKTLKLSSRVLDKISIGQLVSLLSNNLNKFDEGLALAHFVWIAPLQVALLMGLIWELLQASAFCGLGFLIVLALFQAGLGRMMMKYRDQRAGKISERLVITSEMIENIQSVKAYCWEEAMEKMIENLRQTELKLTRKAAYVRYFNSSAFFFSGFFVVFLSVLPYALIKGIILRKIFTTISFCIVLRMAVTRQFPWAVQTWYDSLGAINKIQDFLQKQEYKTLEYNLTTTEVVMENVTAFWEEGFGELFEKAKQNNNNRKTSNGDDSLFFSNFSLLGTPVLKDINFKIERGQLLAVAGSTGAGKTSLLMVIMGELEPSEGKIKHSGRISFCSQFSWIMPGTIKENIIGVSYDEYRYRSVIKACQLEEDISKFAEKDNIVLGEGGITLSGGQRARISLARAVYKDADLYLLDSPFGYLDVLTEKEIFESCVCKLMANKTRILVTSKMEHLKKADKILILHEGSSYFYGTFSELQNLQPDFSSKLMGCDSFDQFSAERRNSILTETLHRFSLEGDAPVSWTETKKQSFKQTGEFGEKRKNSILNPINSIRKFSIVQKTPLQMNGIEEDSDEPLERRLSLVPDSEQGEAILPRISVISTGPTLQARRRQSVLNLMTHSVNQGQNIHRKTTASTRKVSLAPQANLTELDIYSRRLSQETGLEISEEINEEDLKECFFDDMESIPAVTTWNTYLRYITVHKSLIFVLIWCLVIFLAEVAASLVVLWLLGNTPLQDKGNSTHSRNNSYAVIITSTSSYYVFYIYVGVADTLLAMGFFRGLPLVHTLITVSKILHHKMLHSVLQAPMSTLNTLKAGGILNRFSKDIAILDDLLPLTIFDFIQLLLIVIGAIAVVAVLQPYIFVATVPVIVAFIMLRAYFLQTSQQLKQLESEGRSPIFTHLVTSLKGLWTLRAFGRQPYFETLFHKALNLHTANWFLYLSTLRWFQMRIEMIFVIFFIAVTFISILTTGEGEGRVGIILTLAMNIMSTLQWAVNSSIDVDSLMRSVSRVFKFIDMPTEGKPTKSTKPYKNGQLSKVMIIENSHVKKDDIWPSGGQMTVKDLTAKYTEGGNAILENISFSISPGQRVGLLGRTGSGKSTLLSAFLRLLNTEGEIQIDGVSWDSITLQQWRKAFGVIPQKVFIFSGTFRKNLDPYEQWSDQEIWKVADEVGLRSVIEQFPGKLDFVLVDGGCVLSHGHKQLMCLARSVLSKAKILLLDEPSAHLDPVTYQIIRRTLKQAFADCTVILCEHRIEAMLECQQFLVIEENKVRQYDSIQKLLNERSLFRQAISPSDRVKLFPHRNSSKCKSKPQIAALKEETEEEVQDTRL

| SMILES | EC50 |
| --- | --- |
| CCC(c1nnn(-c2ccc(F)cc2F)c1C)n1cc(-c2cnc(C(F)(F)F)nc2)c2c(N)ncnc21 (single isomer, unassigned) [Example 190] | 457 nM |
| CCC(c1cn(-c2ccccc2F)nn1)n1cc(-c2cc[nH]n2)c2c(N)ncnc21 (single isomer, unassigned; enantiomer 1) [Example 147, 7-{1-[1-(2-Fluorophenyl)-1H-1,2,3-triazol-4-yl]propyl}-5-(1H-pyrazol-3-yl)-7H-pyrrolo[2,3-d]pyrimidin-4-amine, enantiomer 1] | 479 nM |
| CC(c1cn(-c2ccccc2F)nn1)n1cc(-c2cc[nH]n2)c2c(N)ncnc21 (single isomer, unassigned; enantiomer 2) [Example 122, 7-{1-[1-(2-Fluorophenyl)-1H-1,2,3-triazol-4-yl]ethyl}-5-(1H-pyrazol-3-yl)-7H-pyrrolo[2,3-d]pyrimidin-4-amine, enantiomer 2] | 1050 nM |
| CC(c1cn(-c2ccc(F)cc2F)nn1)n1cc(-c2cnc(C(F)(F)F)nc2)c2c(N)ncnc21 (single isomer, unassigned; enantiomer 2) [Example 124, 7-{1-[1-(2,4-Difluorophenyl)-1H-1,2,3-triazol-4-yl]ethyl}-5-[2-(trifluoromethyl)pyrimidin-5-yl]-7H-pyrrolo[2,3-d]pyrimidin-4-amine, enantiomer 2] | 1240 nM |
| CCC(c1cn(-c2ccccc2F)nn1)n1cc(-c2cnc(C(F)F)nc2)c2c(N)ncnc21 (single isomer, unassigned; enantiomer 2) [Example 144, 5-[2-(Difluoromethyl)pyrimidin-5-yl]-7-{1-[1-(2-fluorophenyl)-1H-1,2,3-triazol-4-yl]propyl}-7H-pyrrolo[2,3-d]pyrimidin-4-amine, enantiomer 2] | 732 nM |
| CCC(c1cn(-c2ccccc2F)nn1)n1cc(-c2cnc(N(C)C)nc2)c2c(N)ncnc21 (single isomer, unassigned; enantiomer 2) [Example 146, 5-[2-(Dimethylamino)pyrimidin-5-yl]-7-{1-[1-(2-fluorophenyl)-1H-1,2,3-triazol-4-yl]propyl}-7H-pyrrolo[2,3-d]pyrimidin-4-amine, enantiomer 2] | 1190 nM |
| CCC(c1c[nH]c(-c2ccc(F)cc2F)n1)n1cc(-c2cnc(C(F)(F)F)nc2)c2c(N)ncnc21 (single isomer, unassigned; enantiomer 2) [Example 178, 7-{1-[2-(2,4-Difluorophenyl)-2H-imidazol-4-yl]propyl}-5-[2-(trifluoromethyl)pyrimidin-5-yl]-7H-pyrrolo[2,3-d]pyrimidin-4-amine, enantiomer 2] | 850 nM |
| Cc1c(C(C)n2cc(-c3cnc(C(F)(F)F)nc3)c3c(N)ncnc32)nnn1-c1ccccc1F (single isomer, unassigned; enantiomer 2) [Example 180, 7-{1-[1-(2-Fluorophenyl)-5-methyl-1H-1,2,3-triazol-4-yl]ethyl}-5-[2-(trifluoromethyl)pyrimidin-5-yl]-7H-pyrrolo[2,3-d]pyrimidin-4-amine, enantiomer 2] | 1920 nM |
| CCC(c1cn(-c2ccc(OC)nc2)nn1)n1cc(-c2cnc(C(F)(F)F)nc2)c2c(N)ncnc21 (single isomer, unassigned; enantiomer 2) [Example 310, 7-{1-[1-(6-Methoxypyridin-3-yl)-1H-1,2,3-triazol-4-yl]propyl}-5-[2-(trifluoromethyl)pyrimidin-5-yl]-7H-pyrrolo[2,3-d]pyrimidin-4-amine, enantiomer 2] | 1300 nM |
| CC(c1cnc(-c2ccccc2F)[nH]1)n1cc(-c2cccc3ccncc23)c2c(N)ncnc21 (centres unmarked) [Example 61, 7-{1-[2-(2-Fluorophenyl)-1H-imidazol-5-yl]ethyl}-5-(isoquinolin-8-yl)-7H-pyrrolo[2,3-d]pyrimidin-4-amine] | 1480 nM |
| CC(c1cnc(-c2ccccc2F)[nH]1)n1cc(-c2cnc3[nH]ccc3c2)c2c(N)ncnc21 (centres unmarked) [Example 62, 7-{1-[2-(2-Fluorophenyl)-1H-imidazol-5-yl]ethyl}-5-(7H-pyrrolo[2,3-b]pyridin-5-yl)-7H-pyrrolo[2,3-d]pyrimidin-4-amine] | 2220 nM |
